Where no end group is shown, it is not given here.
Tests used:
[1] = tested on: rats experimentally sensitised to ovalbumin; assay: Serum histamine after systemic allergen (ovalbumin) challenge of sensitised, peptide-immunised rats; assay type: in vivo, rat
Experimental: Groups of rats (male, Wistar) were hypersensitized by subcutaneous injection of a mixture (0.5 ml) of 0.5 ml chicken egg white (200 mg protein) and 2.5 ml Bordetella pertussis (40×10^10 organisms/ml)by a well-established experimental procedure (Jasani, B. and Stanworth, D. R., Journal of Immunologlcal Methods, 30, pp. 55-68 (1979)).
Repeat subcutaneous injections of the peptide-carrier protein conjugate mixed with incomplete Freund's adjuvant (IFA) were administered at days 14 and 21.
The effect of pre- or post-sensitisation immunisation with peptide (as described in section (b) above) on the state of hypersensitivity of rats which had been experimentally sensitised to ovalbumin (according to Example 5(a) above) was determined by the following procedure; similar investigations were carried out on non-immunised groups of rats as a control.
Animals from both the immunized and control groups were bled (from the tail vein) prior to systemic allergen challenge by intrapenal injection of ovalbumin (5 mg). The animals were sacrificed 10 min. later, whereupon a further sample of blood was obtained from their hearts. The histamine levels in serum from both pre-and post-allergen challenge blood samples were determined by a standard automated spectrofluorimetric procedure; the antibody profiles of the sera being determined by ELISA (according to Example 5(c) above).

[2] = tested on: rat peritoneal mast cells; design: dose or concentration left out as unconfirmed; conditions: concentration range; cited from earlier work
[3] = A: immunised with peptide (PPD conjugate) before experimental sensitisation
[4] = B: immunised with peptide (PPD conjugate) after experimental sensitisation

| Substance | Histamine release (mean allergen-induced serum histamine level) [1, 3] [ng/mL] | Histamine release (mean allergen-induced serum histamine level) [1, 4] [ng/mL] | effect on allergen-induced histamine release ([1]; pre- or post-immunisation of experimentally sensitised rats) | non-cytolytic histamine release from rat peritoneal mast cells [2] |
| --- | --- | --- | --- | --- |
| F57: non-histamine releasing analogue of F49 in which the N-terminal lysine residue is replaced by glycine (GYNGSNQRFFIF-NH2) | 606 | 1159 | no significant effect | – |
| KTKGSGFF [octapeptide (sequence 497-504), human IgE Cε4 residues 497-504] | – | – | – | dose-dependent histamine release |
| KTKGSGFFVF [decapeptide (sequence 497-506), human IgE Cε4 residues 497-506] | – | – | – | dose-dependent histamine release |
| Lys-Tyr-Asn-Gly-Ser-Asn-Gln-Arg-Phe-Phe-Ile-Phe-NH2 (KYNGSNQRFFIF-NH2) [F49, histamine releasing rat ε-chain dodecapeptide] | 0 | 50 | – | – |
| RKTKGSGFF [nonapeptide (sequence 496-504), human IgE Cε4 residues 496-504] | – | – | – | dose-dependent histamine release |
